We go through 14 molecules from paper PMC11355918, “Inhibition of Soluble Epoxide Hydrolase by Cembranoid Diterpenes from Soft Coral Sinularia maxima: Enzyme Kinetics, Molecular Docking, and Molecular Dynamics” (Marine Drugs, 2024).

For one assay, the system named is sEH. The note with it: cited from earlier work.
Assay [1] concerns the target T1, recombinant human sEH (Homo sapiens, UniProt P34913).
T1 sequence (P34913 1-555): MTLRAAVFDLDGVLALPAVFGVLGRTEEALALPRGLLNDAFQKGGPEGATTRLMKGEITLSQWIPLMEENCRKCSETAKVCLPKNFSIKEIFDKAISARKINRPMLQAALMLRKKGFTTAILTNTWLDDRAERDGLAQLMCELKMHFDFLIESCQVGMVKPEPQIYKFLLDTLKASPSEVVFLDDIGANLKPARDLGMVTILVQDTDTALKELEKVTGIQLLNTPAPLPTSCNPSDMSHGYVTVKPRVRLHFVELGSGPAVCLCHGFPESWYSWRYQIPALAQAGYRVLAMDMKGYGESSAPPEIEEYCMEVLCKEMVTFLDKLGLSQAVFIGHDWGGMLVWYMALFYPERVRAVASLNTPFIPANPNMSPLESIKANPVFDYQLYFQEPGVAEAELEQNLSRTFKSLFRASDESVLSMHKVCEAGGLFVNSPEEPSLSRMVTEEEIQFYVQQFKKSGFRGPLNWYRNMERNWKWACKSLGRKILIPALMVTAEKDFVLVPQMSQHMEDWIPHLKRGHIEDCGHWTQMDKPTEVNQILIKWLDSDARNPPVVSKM
The assay can be described thus: biochemical. The note with it: PHOME substrate, 37 °C, 60 min, mean ± SD (n = 3); read-out: IC50 (sEH inhibitory effect). The method, then: Bis-Tris (B9754) was purchased from Sigma-Aldrich (St. Louis, MO, USA).
The sEH inhibition assay was performed as described in a previous study, with slight modifications. In 96-well plates, separate mixtures were prepared for each test compound, containing 130 µL of sEH in Bis-Tris buffer with HCl (pH 7.0, containing 0.1% bovine serum albumin) and 20 µL of the test compound (10 mM, diluted in DMSO). Subsequently, 50 µL of PHOME, which serves as a substrate, was added to each well. The mixtures were then incubated at 37 °C, and fluorescence was monitored using the VICTOR Nivo multimode plate reader (PerkinElmer, Waltham, MA, USA) for 60 min, with excitation and emission wavelengths of 330 nm and 460 nm, respectively. […] The inhibitory activity was calculated using the following equation:Inhibitory activity (%) = [1 − (ΔI/ΔC)] × 100%, where ΔI and ΔC are the fluorescence readings of the inhibitor and the control after 60 min, respectively. IC50 values were calculated using SigmaPlot 10.0 (Systat Software, CA, USA). Data are presented as means ± standard deviations from three independent experiments (n = 3, p < 0.05).

Assay [2] deals with T1, recombinant human sEH. The assay can be described thus: Enzyme kinetics of sEH inhibition (Lineweaver-Burk and Dixon plots). The class given is biochemical. The note with it: for Ki: Determined using Dixon plots, read-out: Ki (inhibition constant); for Inhibition Type: Determined using Lineweaver-Burk plots, PHOME 0.1-0.8 mM. The procedure: The inhibition type of a compound provides insight into how it interacts with the enzyme. […] PHOME concentrations of 0.1, 0.2, 0.4, and 0.8 mM were used, along with compound 3 concentrations of 0, 15, 30, 60, and 90 µM, and compound 9 concentrations of 0, 20, 40, 60, and 100 µM. In the Lineweaver–Burk method, competitive and non-competitive inhibition is indicated by a series of straight lines intersecting at the same point on the y- and x-axes, respectively. […] In most cases, this implies that these inhibitors bind to an allosteric site on the enzyme rather than the active site, thereby preventing the enzyme from functioning regardless of the substrate concentration.
The inhibition constant (Ki) is a measure of the binding affinity of the inhibitor for the enzyme, with a lower value indicating a stronger affinity. Dixon plots were used to determine the Ki values for the compounds.
Enzyme kinetics were analyzed using Lineweaver–Burk and Dixon plots. This approach helped determine the mode of inhibition and the inhibition constant (Ki) at various substrate concentrations, both in the absence (0 μM) and presence of inhibitors. Data were plotted using Microsoft Excel 365.

Setting [3] is: protostane-type triterpenoids from Alisma orientale, read-out: IC50 (sEH inhibition).

Where two headings read alike, the source gives them in different places.

For orientation: IC50 means the point on the concentration scale where inhibition reaches its midpoint. As for 3β-hydroxy-25-anhydro-alisol F, the IC50 in the assay with sEH (setting [3]) was 10.1 ± 1.12 µM. On to 3β-hydroxy-alisol G, for which the IC50 with sEH (setting [3]) is 30.4 ± 2.65 µM. For `C[C@@H]1CC[C@]2(C(=O)O)CC[C@]3(C)C(=CC[C@@H]4[C@@]5(C)CC(=O)[C@H](O)C(C)(C)[C@@H]5CC[C@]43C)[C@@H]2[C@]1(C)O` [2-oxopomolic acid], in the assay with sEH (triterpenoid from Malus domestica, read-out: IC50 (sEH inhibitory activity)), the IC50 was 11.4 ± 2.7 µM. As to `C=C(C)[C@@H](O)[C@@H](O)C[C@@H](C)C1=C2CC[C@H]3[C@@]4(C)CCC(=O)C(C)(C)[C@@H]4CC[C@]3(C)[C@@]2(C)CC1` [11-deoxy-25-anhydro alisol E], the IC50 with sEH (protostane-type triterpenoids, read-out: IC50 (sEH inhibitory effects)) was 5.94 ± 0.54 µM. As to `C=C(C)[C@H]1C/C=C(\C(=O)OC)CC(=O)C[C@@](C)(O)[C@@H](O)C2=CC(C(=O)OC)=C(C1)O2` [Compound 1, sinumaximol A], the IC50 on recombinant human sEH [1] is more than 100 µM. Still for that read-out and setting: with `C=C(C)C1CCC2=CC(CC(C)(O)C(O)C3=CC(C(=O)OC)=C(C1)O3)OC2=O` (stereo not drawn) [Compound 2, sinumaximol B] the figure was more than 100 µM.

Broadly, the Ki is the equilibrium dissociation constant of an inhibitor or competing ligand from its target. For `C=C(C)C1CCC23OC2C(CC(C)(O)C=C2C=C(C(=O)OC)C(OC)(C1)O2)OC3=O` (stereo not drawn) [Compound 3, sinumaximol C], at recombinant human sEH [2], the Ki turned out to be 59.4 µM and the “Inhibition Type” value is given as “Non-competitive”. The IC50 at recombinant human sEH [1] amounted to 70.7 ± 1.44 µM. `C=C1CCC2(O)C(=C)COC2C=C(C)CCC2OC2(C)CCC1O` (stereo not drawn) [Compound 4, sinumaximol D]: the IC50 at recombinant human sEH [1] was more than 100 µM. Still for that read-out and setting: the result for `C=C1CC=C2C(C=C(C)CCC3OC3(C)CCC1O)OCC2(C)O` (stereo not drawn) [Compound 5, sinumaximol E] reads more than 100 µM; that for `CC1=CC2OCC(C)(O)C2=CCC(C)(O)C=CCC2(C)OC2CC1` (stereo not drawn) [Compound 6, sinumaximol F], more than 100 µM; that for `CC1=CC2OC(=O)C(C)=C2CCC(C)(O)C=CCC(C)(O)C(O)CC1` (stereo not drawn) [Compound 7, sinumaximol G], more than 100 µM. On the same count and under the same terms, with `C=C1CCC2=C(C)COC2C=C(C)CCC(O)C(C)(O)CCC1O` (stereo not drawn) [Compound 8, sinumaximol H] the figure was more than 100 µM. `C=C(C)C1CC=C(C(=O)OC)CC(=O)CC(C)(O)C=C2C=C(C(=O)OC)C(OC)(C1)O2` (stereo not drawn) [Compound 9, sethukarailin]: on recombinant human sEH [2], the Ki was 55 µM and the “Inhibition Type” value was “Non-competitive”. At recombinant human sEH [1], the IC50 was determined as 78.8 ± 2.26 µM.

Consider `C=C(C)[C@H]1CCC2=C[C@@H](C[C@@]3(C)CC(=O)[C@H](CC(=O)C1)O3)OC2=O` [Compound 10, 5-epinorcembrene], for which, on recombinant human sEH [1], the IC50 was more than 100 µM.
